Measured values reported in a melting point compilation (Tetko et al.; mined from patent text by program, amines drawn as free bases though some values may be those of a salt).

Row | Compound | melting point [°C]
1 | CC(C)(C)NCC(COc1cccc2c1CC(=O)N2)OC(=O)C=Cc1ccccc1 (centres undefined) | 128 to 132
2 | Cc1cc(-c2nc3cccnn3c2-c2ccnc(NC(=O)c3cccc4cccnc34)c2)ccc1F | 229 to 230
3 | O=C(O)C1Cc2c(c(Cl)cc3c(-c4cccc(Cl)c4)noc23)O1 (centres undefined) | 168 to 169
4 | Nc1ccc(Br)cc1CO | 107 to 110
5 | CCCOc1n[nH]c(=O)n1C | 74
6 | Cc1c(N)c(C)c(C(C)C)c2c1CC(C)(CN1CCC(c3ccccc3)CC1)O2 (centres undefined) | 128 to 131
7 | CN(C)C1(C#N)CCCCC1 | 36
8 | CN(C)CCOc1ccc(C(=O)c2c(-c3ccc(O)cc3)sc3cc(O)ccc23)cc1 | 141 to 144
9 | O=C(CCCCl)CN1C(=O)c2ccccc2C1=O | 133 to 134
10 | CC/C=C\C#CCCCCCCCCCCO | 6 to 7
11 | CC(=O)NC[C@H]1CN(c2ccc(N3C[C@@H]4C[C@H]3CS4)c(F)c2)C(=O)O1 | 90 to 95
12 | CC=C1OCC2(CO1)COC(=CC)OC2 (centres undefined) | 30
13 | COc1cc2cc3c(ccc4cc(Cl)ccc43)nc2cc1OC | 241 to 243
14 | CCCc1c(C(=O)C(C)C)c2ccc(C(N)=O)cc2n1Cc1ccccc1Br | 173 to 174
15 | CCOC(=O)NC(=O)P(=O)(OCC)OCC | 57 to 64
16 | CCN(CC)C(=O)c1nn(-c2ccc(OC(F)(F)F)cc2)c2cccc(F)c2c1=O | 118
17 | CC(=O)c1cccc(Nc2cc(C)nc(N)n2)c1 | 194 to 196
18 | O=c1c2c[nH]c3ccc(F)cc3c-2nn1-c1ncccn1 | > 350
19 | COC(=O)c1nc2cc(Cl)c(OC)c(Cl)c2c(O)c1C(=O)OC | 210 to 211
20 | CC(C)c1[nH]n(-c2c(Cl)cc(Cl)cc2Cl)c2nc(Cc3ccc(C(=O)O)cc3)nc(=O)c1-2 | 294 to 295
21 | CC(O)Cc1cnn(-c2c(Cl)cc(C(F)(F)F)cc2Cl)n1 (centres undefined) | 68 to 69
22 | c1csc(-c2nc3ccc(N4CCC(N5CCCC5)CC4)nn3c2-c2ccncc2)c1 | 85
23 | Cc1cc(N)c(NC(=O)OC(C)(C)C)cc1C(F)(F)F | 144
24 | Cc1cccc(NC(=O)NC2N=C(c3ccccc3F)c3ccccc3N(Cc3csc4ccccc34)C2=O)c1 (racemic) | 214 to 216
25 | COc1cccc(C2CCCN2S(=O)(=O)c2ccc(Cl)cc2)c1 (racemic) | 95

Row | Compound | melting point [°C]
26 | Cc1ccncc1Cn1nnnc1-c1ccc(Cl)c(Cl)c1 | 167 to 169
27 | CC(=O)c1cn(C(c2ccccc2)(c2ccccc2)c2ccccc2)cn1 | 158 to 160
28 | O=C1CCC(N2Cc3c(OCc4ccc(C(=O)NCCN5CCCCC5)cc4)cccc3C2=O)C(=O)N1 (centres undefined) | 220 to 222
29 | COc1cc2c(cc1OC)N(C(C)=O)CC(N(C)C)C2 (centres undefined) | 145 to 147
30 | FC(F)c1cc(-c2ccc(C(F)(F)F)cc2)nc2cncn12 | 173
31 | COc1ccccc1S(=O)(=O)C(C)(Cc1ccc2ncccc2c1)C(=O)NO (centres undefined) | 206
32 | CC(C)C(=O)Nc1nsnc1-c1c(Cl)cccc1Cl | 112 to 117
33 | CNS(=O)(=O)c1ccc(C2CCN(c3ccncc3)CC2)cc1 | 225 to 228
34 | N[C@@H](CO)C(=O)NC(=O)N(CCCl)N=O | 117 to 120
35 | CCOC(=O)C(Oc1ccccc1)c1ccccc1 (centres undefined) | 45
36 | CC(Oc1ccc(Cl)nc1Cl)C(=O)O (centres undefined) | 128 to 131
37 | COC(OC)C1CCC2C3CCC4CC(O)CCC4(C)C3C(=O)CC12C (centres undefined) | 136 to 142
38 | CCCCNC(=O)NS(=O)(=O)c1ccccc1-c1ccno1 | 110 to 113
39 | O=c1c2c(nc3c(O)cccn13)CCC2 | 136 to 142
40 | COc1ccc(CC2c3cc(O)c(OC)cc3CCN2CC2CC2)cc1O (single isomer, unassigned; (+)) | 70 to 81
41 | C=CCNC(=O)c1ccc([N+](=O)[O-])cc1Br | 98 to 100
42 | O=C(O)c1ccc(-c2ccc3cc(CCCO)c(C45CC6CC(CC(C6)C4)C5)cc3c2)cc1 | 268 to 269
43 | CC(=O)NCCc1ccc(CC(=O)O)cc1 | 117 to 118
44 | Cc1noc2cc(OC3SCC(O)C(O)C3O)ccc12 (centres undefined) | 148 to 161
45 | Cc1c(C)n2nnnc2c2nc(C)n(CCNC(=O)OC(C)(C)C)c12 | > 250
46 | N#CC(C(=O)Cl)=C(c1ccccc1)c1ccccc1 | 157 to 158
47 | Nc1ccc(CC(=O)N2CCC(c3[nH]nc4c3C(=O)c3c(NC(=O)NN5CCOCC5)cccc3-4)CC2)cc1 | 177 to 179
48 | Cc1c(CNCC2CCOCC2)[nH]c2c(C)c(NC(=O)c3ccc(OC[C@@H]4CCCO4)cc3)ccc12 | 184 to 185
49 | CC1CC(=O)NN=C1c1ccc(NC2=CC(=O)CC2)cc1 (centres undefined) | > 300
50 | CN1C(=O)N(C[C@@H](CCS(=O)(=O)c2ccc(Oc3ccc(F)cc3)cc2)N(O)C=O)C(=O)C1(C)C | 105

Row | Compound | melting point [°C]
51 | CCOC(=O)c1c2ccc(Cl)cc2c(-c2ccccc2)n1C | 94 to 96
52 | N#CC(C=N)CC(=O)c1ccc2ccccc2c1 (centres undefined) | 154 to 157
53 | COC(=O)NCCc1cccc(-c2ccnc3c(C#N)cnn23)c1 | 162 to 164
54 | C=CCN(CC=C)c1nc(NC(=O)COC)n2oc(=O)nc2n1 | 135 to 136
55 | Cc1ccc(S(=O)(=O)OC(C)COc2c([N+](=O)[O-])ccc(F)c2F)cc1 (centres undefined) | 67 to 69
56 | O=C(O)c1cccc(S(=O)(=O)CCO)c1[N+](=O)[O-] | 178 to 181
57 | O=C(Nc1cccc2cc(COc3ccccc3)cnc12)c1c(Cl)cccc1Cl | 157
58 | COc1ccc(S(=O)(=O)N2CC3CCC(C3)C2)c2ccccc12 | 136 to 139
59 | OC(CNCCNc1ncnc2[nH]ncc12)COc1ccccc1 (centres undefined) | 142 to 144
60 | COc1ccc(S(=O)(=O)CC(CS(=O)(=O)c2ccc(OC)cc2)C(=O)O)cc1 | 174 to 175
61 | O=C(CCC(=O)N1Cc2c(cc3ccc4c(c3c2-c2ccc3c(c2)OCO3)OCO4)C1=O)OCc1ccccc1 | 128 to 129
62 | O=C1CCOc2c1ccc1oc(Cl)cc21 | 144 to 146
63 | COc1ccc(-n2c(CF)nc3ccc(N)cc3c2=O)c(C)c1 | 200 to 202
64 | CCOC(=O)c1cc2c(OC)cc3c(c2n1Cc1ccccc1)CCCC3 | 86 to 88
65 | COc1ccc(NC(=O)c2ccc(F)c(F)c2)cc1NS(=O)(=O)c1ccc(C#N)cc1 | 255 to 257
66 | Nc1ccc2nc(-c3ccccc3)sc2c1 | 200 to 201
67 | CSc1nn(-c2c(Cl)cc(Cl)cc2Cl)c(N(C)C)c1CO | 108 to 110
68 | O=Cc1c2ccccc2c(C=O)c2cc3ccccc3cc12 | 215 to 217
69 | COc1cccc(CC[C@H](O)CO[Si](C)(C)C(C)(C)C)c1O | 44 to 46
70 | O=C(O)c1cn(-c2ccc(O)cc2)c2c(F)c(F)c(F)cc2c1=O | > 300
71 | CCCCCCCCCCCCCCNC(=S)NC(=O)c1ccc(C#N)cc1 | 78 to 80
72 | CCCCc1ncc(C=C2C(=O)N(CC(=O)OCC)c3ccccc32)n1Cc1ccc(C(=O)OC)cc1 | 118 to 119
73 | COc1ccc(C(=O)Nc2ccccc2)cc1NC(=S)Nc1ccc(Cl)c([N+](=O)[O-])c1 | 174 to 175
74 | COc1cc(CCCC2SC(=O)NC2=O)cc(OC)c1OCc1ccccc1 (centres undefined) | 101 to 102
75 | CCn1cnc2c(Nc3ccc(NC(=O)OC)cc3)nc(N[C@H]3CC[C@H](O)CC3)nc21 | 131 to 135

Row | Compound | melting point [°C]
76 | CC(=O)NCCn1ccc2ncnc(Nc3ccc(Oc4cccc5sncc45)c(Br)c3)c21 | 132 to 135
77 | Cc1ccc(Nc2c(N)cc(C(=O)O)cc2S(N)(=O)=O)c(C)c1 | 241 to 242
78 | CC(C)(O)C#Cc1cccc(Nc2nccc(-c3sc(N)nc3-c3ccccc3)n2)c1 | 262 to 263
79 | CCOC(=O)N1CCC(=C2c3ccc(F)cc3CCc3cccnc32)CC1 | 116 to 118
80 | COC(=O)C(O)c1ccc([N+](=O)[O-])cc1 (centres undefined) | 56 to 58
81 | Cc1c(F)c(N2CCC(N)C2)c(Cl)c2c1c(=O)c(C(=O)O)cn2C1CC1 (centres undefined) | 124 to 126
82 | CCN1C(=O)CCC(C)(C)c2cc(Nc3ncc(Cl)c(N[C@H]4[C@@H](C(N)=O)[C@@H]5C=C[C@H]4C5)n3)c(OC)cc21 | 156 to 166
83 | O=C(CC1(c2ccccc2)CCCCC1)C(=O)Nc1ccc2c(c1)COC2=O | 120 to 123
84 | O=C1CCC(N2Cc3c(OCc4ccc5occc5c4)cccc3C2=O)C(=O)N1 (centres undefined) | 168 to 170
85 | O=C(O)c1ccc(N(CC2CC2)c2cc3c4c(c2)CCCC4CCC3)cc1 | 214 to 216
86 | NC(=NCCN(Cc1ccc(F)cc1)c1ccccn1)NCCCc1c[nH]cn1 | 60 to 63
87 | O=C1[C@@H]2CCCN2C(=O)N1c1cc(Cl)cc(Cl)c1 | 169
88 | O=c1cc(-c2ccc(O)cc2)oc2c([N+](=O)[O-])cccc12 | 299 to 301
89 | COc1cc2c(cc1OC)CN(CCc1cccc(NC(=O)c3cccc4c(=O)c5cccc(OC)c5[nH]c34)c1)CC2 | 152
90 | CCOC(=O)c1c(C)nc2c(c1NCCCN1CCOCC1)NC(=O)CN2 | 168 to 170
91 | Cc1onc(NS(=O)(=O)c2cc(-c3ncccn3)ccc2-c2ccccc2CN(C)C(=O)CC(C)(C)C)c1C | 120 to 128
92 | CCCCc1nc2cnc3cccnc3c2n1CCOc1ccccc1 | 150
93 | CCCCC1(CCCC)CCc2c(O)cccc2C1O (centres undefined) | 82 to 83
94 | CCCNC(=O)[C@H](CSCc1ccccc1)NC(=O)c1cc2cccc(NS(=O)(=O)c3cccs3)c2[nH]1 | 124 to 125
95 | COc1ccc2c(=O)c(OS(C)(=O)=O)cn(C)c2c1 | 163
96 | Cc1cc(I)cc2[nH]c(C(=O)O)cc(=O)c12 | 294
97 | COc1ccc(C2C3=C(COC3=O)Nc3ccc4cc(C)[nH]c4c32)cc1O (centres undefined) | 293 to 294
98 | Clc1ccc(-c2c(Cl)nc(Cl)nc2-c2ccccc2)cc1 | 123 to 125
99 | O=C1N=CC(OCC2CC2)(C(F)(F)F)c2cc(F)ccc2N1 (centres undefined) | 198 to 199
